# Test results from a melting point compilation (Tetko et al.; mined from patent text by program, amines drawn as free bases though some values may be those of a salt).
row,melting point,SMILES
1,74 to 75 °C,O=C1CCOc2ccc(-c3ccccc3)cc21
2,78 to 80 °C,CC(=O)Oc1ccc(Cn2ccnc2SC(C)=O)cc1F
3,124 to 125 °C,Cn1c(COc2ccc(C=O)cc2)nc2cccnc21
4,190 to 193 °C,CC(C)C(NC(=O)OCc1ccncc1)C(=O)NC(Cc1ccccc1)C(O)C(O)C(Cc1ccccc1)NC(=O)C(NC(=O)OCc1ccncc1)C(C)C (centres undefined)
5,110 to 113 °C,CCCCCCCCCCCCCOc1ccc(CNc2ccc(C(=O)O)cc2)cc1
6,94 °C,CS(=O)(=O)OCCc1ccc(N2CCCC2=O)cc1
7,165 to 166 °C,Cc1ccc(C(=O)NC(NC(=NC#N)Nc2cccnc2)C(Cl)(Cl)Cl)cc1 (centres undefined)
8,163 to 165 °C,COC(=O)c1ccccc1S(=O)(=O)NC(=O)c1nc(OC)cc(OC)n1
9,90 to 92 °C,OC(CCc1cccnc1)CSc1ccc2ccccc2c1 (centres undefined)
10,123 to 126 °C,Cc1cc(C)cc(C(=O)Cc2ccnc(N)c2)c1
11,150 °C,COc1ccc(COC(=O)Nc2cncc(O)c2CCCOc2cccnc2Oc2cccc(Cl)c2)cc1
12,188 to 192 °C,CCn1nnc(-c2ccc(C(=O)N[C@@H]3CCCC[C@@H]3c3ccc(OC)c(OC)c3)cc2)n1
13,154 °C,O=C(O)C(=NO)C(c1ccc(OCc2ccccn2)cc1)c1ccc(OCc2ccccn2)cc1
14,167 °C,COc1ccc(CCNC(=O)C(=O)Nc2cccnc2)cc1OC1CCCC1
15,194 to 197 °C,COc1ccccc1Oc1c(NS(=O)(=O)c2cc(Cl)sc2Cl)nc(-c2ncccn2)nc1OCCOC(=O)Nc1ccccn1
16,85 to 88 °C,CCCCC(CC)COc1cc2c3c(cccc3c1Br)C(=O)c1ccccc1-2 (centres undefined)
17,180 to 181 °C,Cc1c(C(=O)N[C@H](C)[C@](O)(Cn2cncn2)c2ccc(F)cc2F)cnn1-c1ccc(C(F)(F)F)cc1
18,275 to 276 °C,Cc1cc(=O)[nH]c2cc(OCCCN3CCC(NC(=O)c4ccccc4)CC3)ccc12
19,126 to 127 °C,Cc1cc(-c2ccc(S(N)(=O)=O)cc2)n(-c2ccc(F)cc2)c1
20,262 to 264 °C,Cn1c(C(=O)N=[N+]=[N-])c(-c2ccccc2)c2cc([N+](=O)[O-])ccc21
21,91 to 92 °C,Cc1c(SCc2ccc(C(C)(C)C)cc2)cnn(C(C)(C)C)c1=O
22,90 to 91 °C,CC1(C)CCC(C)(C)c2cc(-c3cc(-c4ccc(C(=O)OCc5ccccc5)cc4)ccc3O)ccc21
23,269 to 270 °C,Cc1nnc(CNC(=O)CNC(=O)CN2C(=O)c3ccccc3C2=O)n1-c1ccc(Cl)cc1C(=O)c1ccccc1Cl
24,124 to 126 °C,NC(=O)N(O)Cc1sccc1Sc1ccc(Br)cc1
25,186 to 189 °C,CC(=O)N1CCC(OC(=O)c2ccccc2)(c2nccc3ccccc23)CC1
26,119 to 121 °C,O=C(c1ccc(Cn2cnc3cnccc32)cc1)N1CCOCC1

row,melting point,SMILES
1,131 to 134 °C,CN(C)CCc1c(CC(N)=O)c2ccccc2n1C
2,102 to 104 °C,CC(C)Nc1cccnc1N1CCN(C(=O)c2ccc(C(=O)N(C)CC3OCCO3)cc2)CC1
3,136 to 137 °C,O=C1O[C@@H](c2ccc(F)cc2)[C@@H](Cc2ccc(C(F)(F)F)cc2)N1Cc1cccc2ccccc12 (racemic)
4,129 °C,COc1ccc(CCN2CCC(=C3c4ccccc4CCn4ncnc43)CC2)cc1
5,103 to 105 °C,O=C(O)C(=O)c1ccc(OCCCCOc2ccccc2)cc1
6,95 to 96 °C,Cc1ccc(Oc2ccc(-n3cccc3)cc2)c(O)c1
7,107 to 109 °C,COc1cc(COc2ccc(S(=O)(=O)c3ccc(C)nc3Nc3c(C)cc(C)cc3C)cc2)cc(OC)c1
8,105 to 110 °C,NC(=S)c1ccc(C(=O)NCc2ccc(N3CC(C(=O)O)OC3=O)cc2)cc1 (centres undefined)
9,194 to 196 °C,NC(=NO)c1cc2c(Oc3ccc(Cl)cc3)cncc2s1
10,174 to 175 °C,COc1ccc(Nc2ccc3c(c2)OCC(=O)N3)cc1
11,109 to 110 °C,O=C(OCCc1ccc(OCc2ccc(Cl)cc2)cc1)c1cccnc1
12,102 to 103 °C,CC(C)C(=O)NCCOc1ccc([N+](=O)[O-])cc1
13,139 to 141 °C,COC1COc2cc(NS(C)(=O)=O)c(Oc3ccccc3)cc2C1=O (centres undefined)
14,194 to 196 °C,C[C@H]1c2cc(F)ccc2-c2ccc(F)cc2N1S(=O)(=O)c1ccc(O)cc1
15,91 to 93 °C,CCS(=O)CC(=O)c1ccc(-c2ccccc2F)cc1 (centres undefined)
16,128 to 129 °C,C#Cc1cnn2ccc(-c3ccc(Cl)cc3)nc12
17,164 to 169 °C,O=C1NC(=O)c2c(Sc3ccc(Cl)cc3)c(Sc3ccc(Cl)cc3)c(Sc3ccc(Cl)cc3)c(Br)c21
18,105 °C,COc1ccccc1N1CCN(C(=O)[C@@H](Cc2ccncc2)NC(=O)OC(C)(C)C)CC1
19,278 to 280 °C,O=c1c2c(Cc3ccccc3O)n[nH]c2c2cccnc2n1-c1ccccc1
20,294 to 296 °C,Cc1nc(-n2ccc(O)cc2=O)sc1C(=O)NCc1ccc(F)c(F)c1
21,63 to 64 °C,CCN(CC)C(=O)c1ccc(OCOC)cc1-c1ccccc1
22,74 to 76 °C,CC(C)[C@H](NC(=O)N(C)Cc1csc(C2CCC2)n1)C(=O)N[C@@H](Cc1ccccc1)C[C@H](O)[C@H](Cc1ccccc1)NC(=O)OCc1cncs1
23,104 to 106 °C,NCC(O)(CCc1ccccc1)CCc1ccccc1
24,94 to 96 °C,c1ccc(-c2ncc(N3CCCC3CCCCOC3CCCCO3)nc2-c2ccccc2)cc1 (centres undefined)
25,160 to 163 °C,CC(CCNC1=Nc2cccc3cccc1c23)c1cccnc1 (centres undefined)
26,228 °C,Cc1ccc(NC(=O)c2cccc(N(C)C)c2)cc1Nc1ncc(-c2cccnc2)o1

# The next lines start with the compound.
row,SMILES,melting point
1,O=C(Nc1cccc(S(=O)(=O)NC2CC2)c1)c1cnn2c(C(F)F)cc(-c3ccc(Cl)c(Cl)c3)nc12,254 °C
2,CCCOc1ccc(S(=O)(=O)N2CCN(CC)CC2)cc1-c1nc2cc3nc[nH]c3cc2c(=O)[nH]1,194 to 196 °C
3,CC(C)(C)c1ccc(Cn2cc(C(=O)C(=O)O)c3cc(-c4ccc(Cl)cc4)ccc32)cc1,183 to 184 °C
4,CC12CCC(=O)C([N+](=O)[O-])=C1CCC1C2CCC2(C)C(C(O)CO)CCC12 (centres undefined),183 to 185 °C
5,N#Cc1ccc(-c2ccc(Br)o2)cc1,94 to 94.5 °C
6,CC1=C(C(=O)OCC2CCCO2)C(c2cccc([N+](=O)[O-])c2)C(C(=O)OCC2CCCO2)=C(C)N1 (centres undefined),122 to 123 °C
7,O=C(O)c1cc([N+](=O)[O-])cc([N+](=O)[O-])c1Nc1cc(-c2ccccc2)ccc1O,215 to 217 °C
8,Cn1nc2cccc(O)c2c1S(N)(=O)=O,180 to 181 °C
9,CN1CC=C(c2c[nH]c3ccc(Oc4ccccn4)cc23)CC1,240 to 245 °C
10,CN1CCCCCC1=NC(=O)Nc1c(Cl)cccc1Cl,143 to 144 °C
11,COc1ccc(/C=C/S(=O)(=O)CS(=O)(=O)/C=C/c2ccc(O)c(OC)c2)cc1N,148 to 150 °C
12,COC(=O)CCSSN=C1C(=O)N(C)C(=O)N1c1ccccc1F,81 to 84.5 °C
13,Cc1cc(NS(=O)(=O)c2ccccc2)no1,107 to 108 °C
14,CCCCCCCCCCCCCCCCC(COC(C)=O)(COC(C)=O)NC(C)=O,84 to 86 °C
15,Cc1nc2ccc(N3CCN[C@H](C)C3)nn2c1-c1ccnc2[nH]ccc12,202 to 204 °C
16,N#Cc1cnc2cc(F)ccc2c1Cl,163 to 165 °C
17,N#Cc1cc2nc(O)c(O)nc2cc1C#N,> 300 °C
18,CCOC(=O)C1=C(C)NC(c2csc(C)n2)=NC1c1ccc(F)cc1Cl (centres undefined),123 to 125 °C
19,CCC(=O)NCCC1CNc2ccc3c(c21)CCO3 (centres undefined),96 to 98 °C
20,Cc1ccc(S(=O)(=O)OCC2Cc3cc(Cl)cc(OS(=O)(=O)C(F)(F)F)c3O2)cc1 (centres undefined),55 to 57 °C
21,C=CCc1cc2c(c(CC=C)c1O)CCC(=O)N2CC(O)CC (centres undefined),115 to 116 °C
22,CN1Cc2c(n(-c3ccc(F)cc3)c3ccc(F)cc23)C1,160 to 165 °C
23,Cn1cc2c(ncn3nc(-c4ccco4)nc23)n1,155 to 156 °C
24,CCOC(=O)N1CC=C(c2cc(F)c(C#N)cc2F)CC1,85 to 87 °C

row,SMILES,melting point
1,CCN(C)C(=O)c1cnn(-c2cccc(C#N)c2)c1C#N,185 to 187 °C
2,COc1cccc(CO)c1C,63 to 64 °C
3,S=C1NCC(Cl)=NN1c1cc(Cl)cc(Cl)c1,207 to 208 °C
4,C[C@@H](O)c1nccc(N2CCN(c3nc4cccnc4o3)CC2)n1,153 to 156 °C
5,CON(C(=O)c1cn(C)nc1C(F)F)C(C)C1CCC(C)=CC1(C)C (centres undefined),95 to 105 °C
6,O=C1C=CC2=CN=C(c3ccco3)N3CCC(=C23)N1,278 to 279 °C
7,COc1ccc2c(c1)N(CCCN1CCC(CCO)CC1)c1cccc(SC)c1S2,101 to 103 °C
8,O=C(C(c1ccccc1)n1cnc2[nH]ncc2c1=S)N1CCC(C2C=C(O)C=CN2)CC1 (centres undefined),138 to 142 °C
9,CCCNCC1Cc2ccc(-c3ccc(=O)[nH]n3)cc2C1 (centres undefined),144 to 146 °C
10,CC(C)(C)NC(=O)C1CC(C)(C)NC(C)(C)C1=NO (centres undefined),136 to 139 °C
11,COC(=O)C(Cc1ccccc1)NC(=O)C(CC(=O)O)NC(=O)C(N)C(C)C(=O)O (centres undefined),172 to 175 °C
12,CCCCN(CC)c1cc(C)nc(Oc2c(C)cc(Cl)cc2C)c1C,177 to 178 °C
13,O=C1Nc2cc(F)ccc2C1c1ncnc2c1cnn2C1CCCCC1 (centres undefined),277 to 280 °C
14,Oc1cc2c(Cl)cc(Br)cc2cc1Br,156 to 158 °C
15,CCOC(=O)c1sc2ccc(O)c(C=O)c2c1Cl,128 to 130 °C
16,CNC(=O)C1=CC2(CCOCC2)Oc2ccc([N+](=O)[O-])cc21,183 to 184 °C
17,COc1ccc2nc(CO)n(C)c2n1,138 to 140 °C
18,CC(C)(C)c1cc(CNn2ccnc2N2CCOCC2)cc(C(C)(C)C)c1O,161 to 163 °C
19,Cc1ccc(C(=O)Nc2cn(C3CCCCO3)nc2C(=O)NCCC#N)cn1 (centres undefined),118 to 120 °C
20,CCCCCCCCCCCCCCCC(Br)CC(=O)O (centres undefined),47 to 51 °C
21,COC(=O)C(=C(C)C)N1CC(NC(=O)COc2ccccc2)C1=O (centres undefined),154 to 155 °C
22,CC(C)(CCCC(=O)O)c1ccc(O)c(C(=O)O)c1,136 to 138 °C
23,CCN1CCN(C)C[C@@H](NC(=O)c2cc(Br)c(NC)nc2OC)C1,52 to 55 °C
